{
  "source": "paper PMC6209510",
  "about": "(European journal of medicinal chemistry, 2017)",
  "data": [
    {"system": "P. falciparum D6", "assay": "not given", "assay_type": "cell-based, Plasmodium falciparum", "conditions": "Plasmodium falciparum, D6, 48 h, read-out: P. falciparum D6 IC50", "units": {"IC50": "nM"}, "values": [
      {"compound": "CCN(CC)CCCC(C)Nc1ccnc2cc(Cl)ccc12", "note": "(stereo not drawn) [CQ, Chloroquine, reference compound]", "IC50": 83}
    ]},
    {"system": "P. falciparum D6", "assay": "not given", "assay_type": "cell-based, Plasmodium falciparum", "conditions": "Vero cells vs P. falciparum D6", "values": [
      {"compound": "COc1cc(CNCCCCNCc2ccc(OCc3ccccc3)c(OC)c2)ccc1OCc1ccccc1", "note": "[Compound 26, N1,N4-bis(4-(benzyloxy)-3-methoxybenzyl) butane-1,4-diamine]", "SI (Selectivity Index: IC50 Vero Cells/IC50 Parasites), P. falciparum D6": ">27.4"},
      {"compound": "COc1cc(CNCCCCCCNCc2ccc(OCc3ccccc3)c(OC)c2)ccc1OCc1ccccc1", "note": "[Compound 27, N1,N6-bis(4-(benzyloxy)-3-methoxybenzyl) hexane-1,6-diamine]", "SI (Selectivity Index: IC50 Vero Cells/IC50 Parasites), P. falciparum D6": ">31.7"}
    ]},
    {"system": "Vero cells", "assay": "Cytotoxicity assay on Vero cells", "assay_type": "cell-based, African green monkey", "conditions": "48 h; tested at a maximum concentration of 8 μM; NC = not cytotoxic", "values": [
      {"compound": "N1,N1,N10,N10-tetrakis(4-methoxybenzyl) decane-1,10 diamine [Compound 40]", "Cytotoxicity Vero cells IC50": "NC (not cytotoxic at the maximum concentration tested (4.46 μg/mL))"}
    ]},
    {"system": "not listed separately", "assay": "Cytotoxicity assay on Vero cells", "assay_type": "cell-based, African green monkey", "conditions": "African green monkey, Vero cells (mammalian kidney fibroblasts)", "values": [
      {"compound": "c1ccc(CNCCCNCc2ccccc2)cc1", "note": "[Compound 1, N1,N3-dibenzylpropane-1,3-diamine]", "IC50 at 48 h": "> 4.76 µg/mL"},
      {"compound": "COc1ccc(CNCCCNCc2ccc(OC)cc2)cc1", "note": "[Compound 7, N1,N3-bis(4-methoxybenzyl)propane-1,3-diamine]", "IC50 at 48 h": "> 4.76 µg/mL"},
      {"compound": "COc1ccc(CNCCCCNCc2ccc(OC)cc2)cc1", "note": "[Compound 8, N1,N4-bis(4-methoxybenzyl)butane-1,4-diamine]", "IC50 at 48 h": "> 4.76 µg/mL"},
      {"compound": "COc1ccc(CNCCCCCCNCc2ccc(OC)cc2)cc1", "note": "[Compound 9, N1,N6-bis(4-methoxybenzyl)hexane-1,6-diamine]", "IC50 at 48 h": "8.32 µM"},
      {"compound": "COc1ccc(CNCCCCCCCCNCc2ccc(OC)cc2)cc1", "note": "[Compound 10, N1,N8-bis(4-methoxybenzyl)octane-1,8-diamine]", "IC50 at 48 h": "> 4.76 µg/mL"},
      {"compound": "COc1ccc(CNCCCCCCCCCCNCc2ccc(OC)cc2)cc1", "note": "[Compound 11, N1,N10-bis(4-methoxybenzyl)decane-1,10-diamine]", "IC50 at 48 h": "> 4.76 µg/mL"},
      {"compound": "COc1ccc(CNCCCCCCCCCCCCNCc2ccc(OC)cc2)cc1", "note": "[Compound 12, N1,N12-bis(4-methoxybenzyl)dodecane-1,12-diamine]", "IC50 at 48 h": "> 4.76 µg/mL"},
      {"compound": "COc1ccc(CNCCCNCc2ccc(OC)c(O)c2)cc1O", "note": "[Compound 19, 5,5’-((propane-1,3-diylbis(azanediyl))bis(methylene))bis(2-methoxyphenol)]", "IC50 at 48 h": "> 4.76 µg/mL"},
      {"compound": "COc1ccc(CNCCCCNCc2ccc(OC)c(O)c2)cc1O", "note": "[Compound 20, 5,5’-((butane-1,4-diylbis(azanediyl))bis(methylene))bis(2-methoxyphenol)]", "IC50 at 48 h": "> 4.76 µg/mL"},
      {"compound": "COc1ccc(CNCCCCCCNCc2ccc(OC)c(O)c2)cc1O", "note": "[Compound 21, 5,5’-((hexane-1,6-diylbis(azanediyl))bis(methylene))bis(2-methoxyphenol)]", "IC50 at 48 h": "> 4.76 µg/mL"},
      {"compound": "COc1ccc(CNCCCCCCCCNCc2ccc(OC)c(O)c2)cc1O", "note": "[Compound 22, 5,5’-((octane-1,8-diylbis(azanediyl))bis(methylene))bis(2-methoxyphenol)]", "IC50 at 48 h": "> 4.76 µg/mL"},
      {"compound": "COc1ccc(CNCCCCCCCCCCNCc2ccc(OC)c(O)c2)cc1O", "note": "[Compound 23, 5,5’-((decane-1,10-diylbis(azanediyl))bis(methylene)) bis(2-methoxyphenol)]", "IC50 at 48 h": "> 4.76 µg/mL"},
      {"compound": "COc1ccc(CNCCCCCCCCCCCCNCc2ccc(OC)c(O)c2)cc1O", "note": "[Compound 24, 5,5’-((dodecane-1,12-diylbis(azanediyl))bis(methylene))bis(2-methoxyphenol)]", "IC50 at 48 h": "> 4.76 µg/mL"},
      {"compound": "COc1cc(CNCCCNCc2ccc(OCc3ccccc3)c(OC)c2)ccc1OCc1ccccc1", "note": "[Compound 25, N1,N3-bis(4-(benzyloxy)-3-methoxybenzyl) propane-1,3-diamine]", "IC50 at 48 h": "6.65 µM"},
      {"compound": "COc1cc(CNCCCCNCc2ccc(OCc3ccccc3)c(OC)c2)ccc1OCc1ccccc1", "note": "[Compound 26, N1,N4-bis(4-(benzyloxy)-3-methoxybenzyl) butane-1,4-diamine]", "IC50 at 48 h": "> 4.76 µg/mL"},
      {"compound": "COc1cc(CNCCCCCCNCc2ccc(OCc3ccccc3)c(OC)c2)ccc1OCc1ccccc1", "note": "[Compound 27, N1,N6-bis(4-(benzyloxy)-3-methoxybenzyl) hexane-1,6-diamine]", "IC50 at 48 h": "> 4.76 µg/mL"},
      {"compound": "COc1cc(CNCCCCCCCCCCNCc2ccc(OCc3ccccc3)c(OC)c2)ccc1OCc1ccccc1", "note": "[Compound 29, N1,N10-bis(4-(benzyloxy)-3-methoxybenzyl) decane-1,10-diamine]", "IC50 at 48 h": "> 4.76 µg/mL"},
      {"compound": "COc1cc(CNCCCCCCCCCCCCNCc2ccc(OCc3ccccc3)c(OC)c2)ccc1OCc1ccccc1", "note": "[Compound 30, N1,N12-bis(4-(benzyloxy)-3-methoxybenzyl) dodecane-1,12-diamine]", "IC50 at 48 h": "> 4.76 µg/mL"}
    ]},
    {"system": "human foreskin fibroblast (HFF)", "assay": "Cytotoxicity on fibroblast", "assay_type": "cell-based", "conditions": "no cytotoxicity at 10 μM", "units": {"cytotoxicity on fibroblast": "µM"}, "values": [
      {"compound": "COc1cc(CNCCCNCc2ccc(OCc3ccccc3)c(OC)c2)ccc1OCc1ccccc1", "note": "[Compound 25, N1,N3-bis(4-(benzyloxy)-3-methoxybenzyl) propane-1,3-diamine]", "cytotoxicity on fibroblast": "> 10"}
    ]},
    {"system": "P. falciparum W2", "assay": "not given", "assay_type": "cell-based", "conditions": "Plasmodium falciparum, W2, 48 h, read-out: P. falciparum W2 IC50", "units": {"IC50": "nM"}, "values": [
      {"compound": "CCN(CC)CCCC(C)Nc1ccnc2cc(Cl)ccc12", "note": "(stereo not drawn) [CQ, Chloroquine, reference compound]", "IC50": 422}
    ]}
  ]
}
